Tests used:
HCT-116 = assay: Cytotoxicity against human HCT116 cells after 72 hrs by MTT assay; format: functional, cell-based; settings: HCT-116, 72 h
Carbonic anhydrase 1 = Carbonic anhydrase 1 (Homo sapiens, UniProt P00915)
Description: Inhibition of human carbonic anhydrase 1 by stopped-flow CO2 hydration assay

Carbonic anhydrase 9 = Carbonic anhydrase 9 (Homo sapiens, UniProt Q16790)
Description: Inhibition of human carbonic anhydrase 9 by stopped-flow CO2 hydration assay

HeLa = assay: Cytotoxicity against human HeLa cells after 72 hrs by MTT assay; format: functional, cell-based
Carbonic anhydrase 2 = Carbonic anhydrase 2 (Homo sapiens, UniProt P00918)
Description: Inhibition of human carbonic anhydrase 2 by stopped-flow CO2 hydration assay

MCF7 = assay: Cytotoxicity against human MCF7 cells after 72 hrs by MTT assay; format: functional, cell-based; settings: MCF7, 72 h
HaCaT = assay: Cytotoxicity against human HaCaT cells after 72 hrs by MTT assay; format: cell-based

Sequence of Carbonic anhydrase 1 (P00915 whole entry): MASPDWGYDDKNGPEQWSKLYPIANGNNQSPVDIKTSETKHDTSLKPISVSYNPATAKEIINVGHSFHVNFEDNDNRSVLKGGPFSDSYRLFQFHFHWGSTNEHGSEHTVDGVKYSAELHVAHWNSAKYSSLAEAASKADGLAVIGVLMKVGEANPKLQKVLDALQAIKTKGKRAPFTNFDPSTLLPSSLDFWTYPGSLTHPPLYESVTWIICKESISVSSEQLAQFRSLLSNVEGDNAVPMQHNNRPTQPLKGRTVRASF

| SMILES | IC50 (HCT-116) [nM] | Ki (Carbonic anhydrase 1) [nM] | Ki (Carbonic anhydrase 9) [nM] | IC50 (HeLa) [nM] | Ki (Carbonic anhydrase 2) [nM] | IC50 (MCF7) [nM] | IC50 (HaCaT) [nM] |
| --- | --- | --- | --- | --- | --- | --- | --- |
| N/C(=N\S(=O)(=O)c1ccccc1SCc1cccc(C(F)(F)F)c1)NNc1nc(Cl)nc(Nc2ccc(S(N)(=O)=O)cc2)n1 | > 100000 | 148 | 37.1 | > 100000 | 7.4 | > 100000 | – |
| N/C(=N\S(=O)(=O)c1ccccc1SCc1ccc(C(F)(F)F)cc1)NNc1nc(Cl)nc(Nc2cccc(S(N)(=O)=O)c2)n1 | > 100000 | 536 | 421 | > 100000 | 326 | > 100000 | – |
| N/C(=N\S(=O)(=O)c1ccccc1SCc1cccc(C(F)(F)F)c1)NNc1nc(Cl)nc(NCc2ccc(S(N)(=O)=O)cc2)n1 | > 100000 | 219 | 43.6 | > 100000 | 5.4 | > 100000 | – |
| N/C(=N\S(=O)(=O)c1ccccc1SCc1cccc2ccccc12)NNc1nc(Cl)nc(NCc2ccc(S(N)(=O)=O)cc2)n1 | > 100000 | 2140 | 383 | > 100000 | 187 | > 100000 | – |
| N/C(=N\S(=O)(=O)c1ccccc1SCc1cccc2ccccc12)NNc1nc(Cl)nc(Nc2ccc(S(N)(=O)=O)cc2)n1 | – | 733 | 41.1 | 17000 | 161 | – | 61000 |
| N/C(=N\S(=O)(=O)c1ccccc1SCc1ccccc1)NNc1nc(Cl)nc(Nc2ccc(S(N)(=O)=O)cc2)n1 | > 100000 | 66.6 | 39.4 | > 100000 | 83.7 | > 100000 | – |
| N/C(=N\S(=O)(=O)c1ccccc1SCc1cccc(C(F)(F)F)c1)NNc1nc(Cl)nc(Nc2cccc(S(N)(=O)=O)c2)n1 | > 100000 | 337 | 3340 | > 100000 | 9.3 | > 100000 | – |
| N/C(=N\S(=O)(=O)c1ccccc1SCc1ccccc1)NNc1nc(Cl)nc(NCc2ccc(S(N)(=O)=O)cc2)n1 | > 100000 | 294 | 46.9 | > 100000 | 38.8 | > 100000 | – |
| N/C(=N\S(=O)(=O)c1ccccc1SCc1cccc2ccccc12)NNc1nc(Cl)nc(Nc2cccc(S(N)(=O)=O)c2)n1 | > 100000 | 3340 | 3400 | > 100000 | 933 | > 100000 | – |
| N/C(=N\S(=O)(=O)c1ccccc1SCc1ccc(C(F)(F)F)cc1)NNc1nc(Cl)nc(NCc2ccc(S(N)(=O)=O)cc2)n1 | > 100000 | 514 | 47.1 | > 100000 | 89.5 | > 100000 | – |
| N/C(=N\S(=O)(=O)c1ccccc1SCc1ccc(C(F)(F)F)cc1)NNc1nc(Cl)nc(Nc2ccc(S(N)(=O)=O)cc2)n1 | > 100000 | 386 | 42.9 | > 100000 | 22 | > 100000 | – |
| N/C(=N\S(=O)(=O)c1ccccc1SCc1ccccc1)NNc1nc(Cl)nc(Nc2cccc(S(N)(=O)=O)c2)n1 | > 100000 | 396 | 3970 | > 100000 | 94.7 | > 100000 | – |

Source: ChEMBL document CHEMBL4138187, “Novel 2-(2-arylmethylthio-4-chloro-5-methylbenzenesulfonyl)-1-(1,3,5-triazin-2-ylamino)guanidine derivatives: Inhibition of human carbonic anhydrase cytosolic isozymes I and II and the transmembrane tumor-associated isozymes IX and XII, anticancer activity, and molecular modeling studies” (Eur J Med Chem, 2018)
